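Exposure lasted 48 hours, with cells grown in 96-well plates and compounds tested at five concentrations. The concentration for 50% growth inhibition is given as GI50. TGI is the concentration that stops growth completely.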
Key:
Assay in all cases: DTP human tumour cell line panel, 48 h
786-0 renal = system: 786-0 renal
A498 renal = system: A498 renal
A549 NSCLC = system: A549 NSCLC
ACHN renal = system: ACHN renal
BT-549 breast = system: BT-549 breast
CAKI-1 renal = system: CAKI-1 renal
CCRF-CEM leukemia = system: CCRF-CEM leukemia
COLO 205 colon = system: COLO 205 colon
DU-145 prostate = system: DU-145 prostate
EKVX NSCLC = system: EKVX NSCLC
HCC-2998 colon = system: HCC-2998 colon
HCT-116 colon = system: HCT-116 colon
HCT-15 colon = system: HCT-15 colon
HL-60(TB) leukemia = system: HL-60(TB) leukemia
HOP-62 NSCLC = system: HOP-62 NSCLC
HOP-92 NSCLC = system: HOP-92 NSCLC
HS 578T breast = system: HS 578T breast
HT29 colon = system: HT29 colon
IGROV1 ovarian = system: IGROV1 ovarian
K-562 leukemia = system: K-562 leukemia
KM12 colon = system: KM12 colon
LOX IMVI melanoma = system: LOX IMVI melanoma
M14 melanoma = system: M14 melanoma
MALME-3M melanoma = system: MALME-3M melanoma
MCF7 breast = system: MCF7 breast
MDA-MB-231 breast = system: MDA-MB-231 breast
MDA-MB-435 = system: MDA-MB-435
MDA-MB-468 breast = system: MDA-MB-468 breast
MOLT-4 leukemia = system: MOLT-4 leukemia
NCI-H226 lung = system: NCI-H226 lung
NCI-H23 lung = system: NCI-H23 lung
NCI-H460 lung = system: NCI-H460 lung
NCI-H522 lung = system: NCI-H522 lung
OVCAR-3 ovarian = system: OVCAR-3 ovarian
OVCAR-4 ovarian = system: OVCAR-4 ovarian
OVCAR-5 ovarian = system: OVCAR-5 ovarian
OVCAR-8 ovarian = system: OVCAR-8 ovarian
PC-3 prostate = system: PC-3 prostate
RPMI-8226 leukemia = system: RPMI-8226 leukemia
RXF 393 renal = system: RXF 393 renal
SF-268 CNS = system: SF-268 CNS
SF-295 CNS = system: SF-295 CNS
SF-539 CNS = system: SF-539 CNS
SK-MEL-2 melanoma = system: SK-MEL-2 melanoma
SK-MEL-28 melanoma = system: SK-MEL-28 melanoma
SK-MEL-5 melanoma = system: SK-MEL-5 melanoma
SK-OV-3 ovarian = system: SK-OV-3 ovarian
SN12C renal = system: SN12C renal
SNB-19 CNS = system: SNB-19 CNS
SNB-75 CNS = system: SNB-75 CNS
SR leukemia = system: SR leukemia
SW-620 colon = system: SW-620 colon
T-47D breast = system: T-47D breast
TK-10 renal = system: TK-10 renal
U251 CNS = system: U251 CNS
UACC-257 melanoma = system: UACC-257 melanoma
UACC-62 melanoma = system: UACC-62 melanoma
UO-31 renal = system: UO-31 renal

CC1=C(C(=O)Nc2ccccc2)C(c2cccc3ccccc23)n2c(nc3ccccc32)N1 (stereo unspecified)
GI50 (786-0 renal): 25.1 µM | TGI (786-0 renal): > 100 µM | GI50 (A498 renal): > 100 µM | TGI (A498 renal): > 100 µM | GI50 (A549 NSCLC): 4.44 µM | TGI (A549 NSCLC): > 100 µM | GI50 (ACHN renal): 19.3 µM | TGI (ACHN renal): > 100 µM | GI50 (BT-549 breast): 13.1 µM | TGI (BT-549 breast): > 100 µM | GI50 (CAKI-1 renal): > 100 µM | TGI (CAKI-1 renal): > 100 µM | GI50 (CCRF-CEM leukemia): > 100 µM | TGI (CCRF-CEM leukemia): > 100 µM | GI50 (COLO 205 colon): > 100 µM | TGI (COLO 205 colon): > 100 µM | GI50 (DU-145 prostate): 47.3 µM | TGI (DU-145 prostate): > 100 µM | GI50 (EKVX NSCLC): 73.7 µM | TGI (EKVX NSCLC): > 100 µM | GI50 (HCC-2998 colon): > 100 µM | TGI (HCC-2998 colon): > 100 µM | GI50 (HCT-116 colon): 6.62 µM | TGI (HCT-116 colon): > 100 µM | GI50 (HCT-15 colon): > 100 µM | TGI (HCT-15 colon): > 100 µM | GI50 (HL-60(TB) leukemia): > 100 µM | TGI (HL-60(TB) leukemia): > 100 µM | GI50 (HOP-62 NSCLC): 20.2 µM | TGI (HOP-62 NSCLC): 56.9 µM | GI50 (HOP-92 NSCLC): 16.7 µM | TGI (HOP-92 NSCLC): > 100 µM | GI50 (HS 578T breast): 2.9 µM | TGI (HS 578T breast): 20.1 µM | GI50 (HT29 colon): > 100 µM | TGI (HT29 colon): > 100 µM | GI50 (IGROV1 ovarian): 89.2 µM | TGI (IGROV1 ovarian): > 100 µM | GI50 (K-562 leukemia): > 100 µM | TGI (K-562 leukemia): > 100 µM | GI50 (KM12 colon): > 100 µM | TGI (KM12 colon): > 100 µM | GI50 (LOX IMVI melanoma): 11 µM | TGI (LOX IMVI melanoma): > 100 µM | GI50 (M14 melanoma): > 100 µM | TGI (M14 melanoma): > 100 µM | GI50 (MALME-3M melanoma): 16.5 µM | TGI (MALME-3M melanoma): 82 µM | GI50 (MCF7 breast): > 100 µM | TGI (MCF7 breast): > 100 µM | GI50 (MDA-MB-231 breast): 10.1 µM | TGI (MDA-MB-231 breast): 93.1 µM | GI50 (MDA-MB-435): > 100 µM | TGI (MDA-MB-435): > 100 µM | GI50 (MDA-MB-468 breast): 26.6 µM | TGI (MDA-MB-468 breast): > 100 µM | GI50 (MOLT-4 leukemia): > 100 µM | TGI (MOLT-4 leukemia): > 100 µM | GI50 (NCI-H226 lung): 16.4 µM | TGI (NCI-H226 lung): 96.1 µM | GI50 (NCI-H23 lung): > 100 µM | TGI (NCI-H23 lung): > 100 µM | GI50 (NCI-H460 lung): > 100 µM | TGI (NCI-H460 lung): > 100 µM | GI50 (NCI-H522 lung): > 100 µM | TGI (NCI-H522 lung): > 100 µM | GI50 (OVCAR-3 ovarian): > 100 µM | TGI (OVCAR-3 ovarian): > 100 µM | GI50 (OVCAR-4 ovarian): 5.93 µM | TGI (OVCAR-4 ovarian): > 100 µM | GI50 (OVCAR-5 ovarian): > 100 µM | TGI (OVCAR-5 ovarian): > 100 µM | GI50 (OVCAR-8 ovarian): 14.5 µM | TGI (OVCAR-8 ovarian): > 100 µM | GI50 (PC-3 prostate): 23.1 µM | TGI (PC-3 prostate): > 100 µM | GI50 (RPMI-8226 leukemia): > 100 µM | TGI (RPMI-8226 leukemia): > 100 µM | GI50 (RXF 393 renal): 15.4 µM | TGI (RXF 393 renal): 95.1 µM | GI50 (SF-268 CNS): 30.4 µM | TGI (SF-268 CNS): > 100 µM | GI50 (SF-295 CNS): 60.4 µM | TGI (SF-295 CNS): > 100 µM | GI50 (SF-539 CNS): 15.2 µM | TGI (SF-539 CNS): > 100 µM | GI50 (SK-MEL-2 melanoma): 83.3 µM | TGI (SK-MEL-2 melanoma): > 100 µM | GI50 (SK-MEL-28 melanoma): > 100 µM | TGI (SK-MEL-28 melanoma): > 100 µM | GI50 (SK-MEL-5 melanoma): > 100 µM | TGI (SK-MEL-5 melanoma): > 100 µM | GI50 (SK-OV-3 ovarian): > 100 µM | TGI (SK-OV-3 ovarian): > 100 µM | GI50 (SN12C renal): 9.91 µM | TGI (SN12C renal): > 100 µM | GI50 (SNB-19 CNS): 9.08 µM | TGI (SNB-19 CNS): 76.9 µM | GI50 (SNB-75 CNS): 1.76 µM | TGI (SNB-75 CNS): 5.95 µM | GI50 (SR leukemia): > 100 µM | TGI (SR leukemia): > 100 µM | GI50 (SW-620 colon): > 100 µM | TGI (SW-620 colon): > 100 µM | GI50 (T-47D breast): > 100 µM | TGI (T-47D breast): > 100 µM | GI50 (TK-10 renal): > 100 µM | TGI (TK-10 renal): > 100 µM | GI50 (U251 CNS): 11.1 µM | TGI (U251 CNS): > 100 µM | GI50 (UACC-257 melanoma): > 100 µM | TGI (UACC-257 melanoma): > 100 µM | GI50 (UACC-62 melanoma): > 100 µM | TGI (UACC-62 melanoma): > 100 µM | GI50 (UO-31 renal): > 100 µM | TGI (UO-31 renal): > 100 µM
